What all share (type): biochemical
Assay [1] deals with T1, FLT3 WT (Homo sapiens, UniProt P36888).
T1 construct: Recombinant proteins containing the FLT3 and FLT3 (D835Y) domains were purchased from Promega; purchased Promega V4064
T1 sequence (P36888 610-943 limits assumed): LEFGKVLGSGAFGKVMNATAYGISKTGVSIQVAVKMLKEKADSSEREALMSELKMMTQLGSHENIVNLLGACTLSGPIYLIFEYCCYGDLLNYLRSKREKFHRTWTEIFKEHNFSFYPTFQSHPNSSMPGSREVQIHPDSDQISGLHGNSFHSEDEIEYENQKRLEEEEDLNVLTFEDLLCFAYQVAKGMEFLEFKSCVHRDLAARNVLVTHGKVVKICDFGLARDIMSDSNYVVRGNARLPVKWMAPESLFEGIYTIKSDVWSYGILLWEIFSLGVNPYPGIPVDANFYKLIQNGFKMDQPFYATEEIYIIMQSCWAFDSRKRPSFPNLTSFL
Nature of the assay: ADP-Glo kinase assay, FLT3 WT. As to conditions: recombinant FLT3, ADP-Glo, 120 min room temperature; read-out: Enzyme activity (IC50, nM) FLT3 WT. As for the experimental part:
FLT3 activity inhibition was measured by ADP-Glo kinase assay (Promega, cat #V9101). ADP-Glo kinase analysis method is an emission ADP detect method which measures kinase activity by quantification of ADP amount produced during kinase reaction and provides uniform high-throughput screening method.
(§1) Analysis performed in two steps. First, after kinase reaction, ADP-Glo™ reagent of equal volume was added to finish kinase reaction, and then the rest ATP was exhausted. Second, Kinase Detection Reagent was added to convert ADP to ATP and newly synthesized ATP was measured by luciferase/luciferin reaction at the same time. Generated light was measured by using luminometer. The measured luminescence amount can be applied to the ATP→ADP standard conversion curve to confirm the correlation with the ADP concentration.
Recombinant proteins containing the FLT3 and FLT3 (D835Y) domains were purchased from Promega (cat #V4064, cat #V4514), respectively. According to the manufacturer's instructions, optimal enzyme, ATP, and substrate concentration were established using the ADP-Glo™ Kinase Assay (Promega, USA). Kinase reaction buffer 5× (200 mM Tris-HCl, pH 7.5, 100 mM MgCl2, 0.5 mg/ml BSA) was diluted and used, and the diluted compound of the present invention (5×, 1 μl), FLT3 enzyme or FLT3/D835Y enzyme (2.5×, 2 μl) and substrate/ATP mixture (2.5×, 2 μl), were mixed sequentially and reacted at room temperature for 120 minutes. Then, ADP-Glo™ Reagent (5 μl) was added and reacted for 40 min at room temperature. Finally, after adding a reagent for detection (Kinase Detection Reagent, 10 μl), reacting at room temperature for 30 min, and then phosphorylation of substrate peptide was measured by measuring luciferase signal (Integration time 0.5-1 second) using SpectraMax ID5 reader (Molecular Devices LLC., San Jose, CA, USA). IC50 was calculated by nonlinear regression using Prism version 5.01 (GrapghPad).
In general terms: ADP-Glo first removes unused ATP, then detects ADP through luciferase.

Assay [2] deals with T2, RET WT (Homo sapiens, UniProt P07949).
T2 construct: Recombinant proteins containing RET wt, RET (M918T) and RET (V804L) domains were purchased from Promega; purchased Promega V8061
T2 sequence (P07949 724-1016 limits assumed): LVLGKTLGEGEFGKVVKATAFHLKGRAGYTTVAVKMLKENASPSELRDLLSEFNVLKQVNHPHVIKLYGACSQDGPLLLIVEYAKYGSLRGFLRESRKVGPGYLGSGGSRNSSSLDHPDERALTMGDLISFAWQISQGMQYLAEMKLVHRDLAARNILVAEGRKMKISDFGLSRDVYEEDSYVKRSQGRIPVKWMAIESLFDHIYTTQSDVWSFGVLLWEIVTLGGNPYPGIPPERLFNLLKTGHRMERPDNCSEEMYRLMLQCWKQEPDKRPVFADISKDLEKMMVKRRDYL
The assay can be described thus: ADP-Glo kinase assay, RET WT. As to conditions: recombinant RET wt, 120 min room temperature, read-out: Enzyme activity (IC50, nM) RET WT. As for the experimental part:
as §1
(§2) Recombinant proteins containing RET wt, RET (M918T) and RET (V804L) domains were purchased from Promega (cat #V8061, cat #VA7274, cat #V4473), respectively. According to the manufacturer's instructions, optimal enzyme, ATP, and substrate concentration were established using ADP-Glo™ Kinase Assay (Promega, USA). […] Then, ADP-Glo™ Reagent (5 μl) was added and reacted at room temperature for further 40 min. Lastly, Kinase Detection Reagent (10 μl) was added and reacted for 30 min more at room temperature, and then phosphorylation of substrate peptide was measured by measuring luciferase signal (Integration time 0.5-1 second) using SpectraMax ID5 reader (Molecular Devices LLC., San Jose, CA, USA). IC50 was calculated by nonlinear regression using Prism version 5.01 (GrapghPad).

Assay [3] concerns the target T3, RET V804L (Homo sapiens, UniProt P07949, V804L).
T3 construct: Recombinant proteins containing RET wt, RET (M918T) and RET (V804L) domains were purchased from Promega; purchased Promega V4473
T3 sequence (P07949 724-1016 V804L limits assumed): T2 sequence (P07949 724-1016 limits assumed) with V81L
Nature of the assay: ADP-Glo kinase assay, RET V804L. Conditions: recombinant RET (V804L), 120 min room temperature, read-out: Enzyme activity (IC50, nM) RET V804L. As for the experimental part: as §1, §2

Where a chain is given by its changes, count along the chain named.

For orientation: IC50 means the point on the concentration scale where inhibition reaches its midpoint. Consider `O=C1Nc2ccc(Br)cc2/C1=C1/Nc2ccccc2/C1=N\OCCN1C[C@H]2C[C@@H]1CN2` [Example 13, (2Z,3E)-3-((2-((1R,4R)-2,5-diazabicyclo[2.2.1]heptan-2-yl)ethoxy)imino)-5′-bromo-[2,3′-biindolinylidene]-2′-one], for which the results for the IC50 in assay [1], in assay [2] and in assay [3] were 4.72 nM, 1.31 nM and 0.376 nM, respectively.
`O=C1Nc2ccccc2/C1=C1/Nc2ccccc2/C1=N\OCCN1CC2(CNC2)C1` [Example 1, (2Z,3E)-3-((2-(2,6-diazaspiro[3.3]heptan-2-yl)ethoxy)imino)-[2,3′-biindolinylidene]-2′-one]: the results for the IC50 in assay [1], in assay [2] and in assay [3] were 1.42 nM, 1.09 nM and 1.3 nM, respectively.
With `O=C1Nc2ccccc2/C1=C1/Nc2ccccc2/C1=N\OCCN[C@H]1[C@@H]2CNC[C@@H]21` [Example 2, (2Z,3E)-3-((2-((1R,5S,6s)-3-azabicyclo[3.1.0]hexan-6-ylamino)ethoxy)imino)-[2,3′-biindolinylidene]-2′-one], the IC50 stood at 2.49 nM in assay [1], 0.964 nM in assay [2] and 0.553 nM in assay [3].
Turning to `N[C@@H]1[C@H]2CN(CCO/N=C3/C(=C4/C(=O)Nc5ccccc54)Nc4ccccc43)C[C@@H]12` [Example 3, (2Z,3E)-3-((2-((1R,5S,6s)-6-amino-3-azabicyclo[3.1.0]hexan-3-yl)ethoxy)imino)-[2,3′-biindolinylidene]-2′-one], the IC50 was 3.78 nM in assay [1], 0.969 nM in assay [2] and 1.27 nM in assay [3].
For `N[C@@H]1[C@H]2CN(CCO/N=C3/C(=C4/C(=O)Nc5ccc(F)cc54)Nc4ccccc43)C[C@@H]12` [Example 8, (2Z,3E)-3-((2-((1R,5S,6s)-6-amino-3-azabicyclo[3.1.0]hexan-3-yl)ethoxy)imino)-5′-fluoro-[2,3′-biindolinylidene]-2′-one], the IC50 in assay [1] was 1.35 nM; in assay [2], 0.441 nM; in assay [3], 0.54 nM.
With `O=C1Nc2ccc(F)cc2/C1=C1/Nc2ccccc2/C1=N\OCCN1CC2(CNC2)C1` [Example 6, (2Z,3E)-3-((2-(2,6-diazaspiro[3.3]heptan-2-yl)ethoxy)imino)-5′-fluoro-[2,3′-biindolinylidene]-2′-one], the IC50 in assay [1] came out at 2.44 nM; in assay [2] it was 0.668 nM; in assay [3], 0.797 nM.
With `O=C1Nc2ccc(F)cc2/C1=C1/Nc2ccccc2/C1=N\OCCN1C[C@H]2C[C@@H]1CN2` [Example 9, (2Z,3E)-3-((2-((1R,4R)-2,5-diazabicyclo[2.2.1]heptan-2-yl)ethoxy)imino)-5′-fluoro-[2,3′-biindolinylidene]-2′-one], the IC50 stood at 3.87 nM in assay [1], 0.49 nM in assay [2] and 0.785 nM in assay [3].
For the molecule `O=C1Nc2ccc(F)cc2/C1=C1/Nc2ccccc2/C1=N\OCCN1C[C@@H]2C[C@H]1CN2` [Example 10, (2Z,3E)-3-((2-((1S,4S)-2,5-diazabicyclo[2.2.1]heptan-2-yl)ethoxy)imino)-5′-fluoro-[2,3′-biindolinylidene]-2′-one], the IC50 in assay [1] was determined as 2.41 nM; in assay [2] it was 0.815 nM; in assay [3], 0.511 nM.
Regarding `O=C1Nc2ccc(F)cc2/C1=C1/Nc2ccccc2/C1=N\OCC(=O)N1C[C@H]2C[C@@H]1CN2` [Example 20, (2Z,3E)-3-((2-((1R,4R)-2,5-diazabicyclo[2.2.1]heptan-2-yl)-2-oxoethoxy)imino)-5′-fluoro-[2,3′-biindolinylidene]-2′-one], the IC50 in assay [1] amounted to 2.94 nM; in assay [2], 1.88 nM; in assay [3], 1.04 nM.
For `O=C(CO/N=C1/C(=C2/C(=O)Nc3ccccc32)Nc2ccccc21)N[C@H]1[C@@H]2CNC[C@@H]21` [Example 16, N-((1R,5S,6s)-3-azabicyclo[3.1.0]hexan-6-yl)-2-(((E)-((Z)-2′-oxo-[2,3′-biindolinylidene]-3-ylidene)amino)oxy)acetamide], the values for the IC50 in assay [1], in assay [2] and in assay [3] were 3.13 nM, 0.873 nM and 0.472 nM, respectively.
Consider `O=C1Nc2ccccc2/C1=C1/Nc2ccccc2/C1=N\OCCN1C[C@H]2C[C@@H]1CN2` [Example 4, (2Z,3E)-3-((2-((1R,4R)-2,5-diazabicyclo[2.2.1]heptan-2-yl)ethoxy)imino)-[2,3′-biindolinylidene]-2′-one], for which the IC50 in assay [1] came to 1.37 nM; in assay [2], 0.423 nM; in assay [3], 0.212 nM.
For `O=C1Nc2ccccc2/C1=C1/Nc2ccccc2/C1=N\OCC(=O)N1C[C@H]2C[C@@H]1CN2` [Example 17, (2Z,3E)-3-((2-((1R,4R)-2,5-diazabicyclo[2.2.1]heptan-2-yl)-2-oxoethoxy)imino)-[2,3′-biindolinylidene]-2′-one], the IC50 worked out at 4.24 nM in assay [1], 1.53 nM in assay [2] and 0.904 nM in assay [3].
For the molecule `O=C(CO/N=C1/C(=C2/C(=O)Nc3ccc(F)cc32)Nc2ccccc21)N[C@H]1[C@@H]2CNC[C@@H]21` [Example 19, N-((1R,5S,6s)-3-azabicyclo[3.1.0]hexan-6-yl)-2-(((E)-((Z)-5′-fluoro-2′-oxo-[2,3′-biindolinylidene]-3-ylidene)amino)oxy)acetamide], the IC50 in assay [1] was determined as 3.13 nM; in assay [2], 1.05 nM; in assay [3] it was 0.419 nM.
For `O=C1Nc2ccccc2/C1=C1/Nc2ccccc2/C1=N\OCCN1C[C@@H]2C[C@H]1CN2` [Example 5, (2Z,3E)-3-((2-((1S,4S)-2,5-diazabicyclo[2.2.1]heptan-2-yl)ethoxy)imino)-[2,3′-biindolinylidene]-2′-one] the same measures were 1.57 nM, 1.85 nM and 0.851 nM.
On to `O=C1Nc2ccc(Cl)cc2/C1=C1/Nc2ccccc2/C1=N\OCCN1C[C@H]2C[C@@H]1CN2` [Example 11, (2Z,3E)-3-((2-((1R,4R)-2,5-diazabicyclo[2.2.1]heptan-2-yl)ethoxy)imino)-5′-chloro-[2,3′-biindolinylidene]-2′-one], for which the IC50 in assay [1] amounted to 4.57 nM; in assay [2] it was 1.72 nM; in assay [3] it was 1.02 nM.
For `O=C1Nc2ccc(F)cc2/C1=C1/Nc2ccccc2/C1=N\OCCN[C@H]1[C@@H]2CNC[C@@H]21` [Example 7, (2Z,3E)-3-((2-((1R,5S,6s)-3-azabicyclo[3.1.0]hexan-6-ylamino)ethoxy)imino)-5′-fluoro-[2,3′-biindolinylidene]-2′-one], the IC50 in assay [1] is 1.47 nM; in assay [2] it was 1.03 nM; in assay [3], 0.742 nM.
